According to EP0496617B1, “Adenosine kinase inhibitors” (priority 1991, dated 1992):
Like-named read-outs stand apart in the source and are kept apart here. Blank lines part the entries; values can stand above or below the molecule they belong to.

Key:
[1] = system: rat brain slices; settings: cited from earlier work
[2] = system: anesthetized rats; settings: cited from earlier work
[3] = system: guinea pig brain slices; settings: cited from earlier work
[4] = system: human umbillical vein endothelial cells; assay: Inhibition of neutrophil adherence to endothelial cells; assay type: cell-based; settings: fMLP-stimulated human neutrophils, 2 hours at 37°C; reversed by adenosine deaminase; Figure 2
Method: The ability of an adenosine kinase inhibitor to affect neutrophil adherence to fibroblasts and endothelial cells was evaluated in a cell culture model.
These incubations were carried out in the presence of fMLP-stimulated human neutrophils isolated from whole blood (1.25 x 10^6/ml) with or without adenosine deaminase (0.125 U/ml). At the end of the incubation, the medium was removed and the monolayers of fibroblasts or endothelial cells and adherent neutrophils were fixed by addition of formaldehyde (3.7%) and, after washing to remove non-adherent neutrophils, adherent neutrophils were stained with Weigart's hematoxylin and counted under a light microscope.

[5] = system: rats; assay: Electroshock-induced seizures; assay type: in vivo; settings: for No. of Animals (protected/tested): 1 hour before electroshock
Method: The ability of the adenosine kinase inhibitors to influence electroshock-induced seizures was also evaluated in an experimental model.
After 1 hour, corneal electrodes were applied to the eyes of each animal and an electrical stimulus of 160 mA delivered for 0.2 seconds. Animals were isolated in separate cages and observed for seizure. Abolition of the hindleg tonic extensor component is taken as the end point for this test and reflects ability of the compound to prevent seizure spread.

[6] = system: mice; settings: cited from earlier work
[7] = system: Male Swiss Webster mice; assay: PTZ-induced seizures; assay type: in vivo; settings: IP at doses of 1, 5 and 10 mg/kg, 45 minutes before PTZ; Figure 4 A
Method: The ability of selected adenosine kinase inhibitors to influence PTZ-induced seizures was evaluated in an experimental animal model.
[…] After injections of the convulsant, animals were isolated in separate cages and observed for the onset of seizure.

[8] = biological target: purified pig heart adenosine kinase (Sus scrofa, UniProt A0A5G2R0F5); assay: Inhibition of adenosine kinase activity; assay type: biochemical
Method: Inhibition of enzyme activity was determined using a 0.1 ml assay mixture containing 50 mM Tris-maleate, pH 7.0, 0.1% (w/v) BSA, 1 mM ATP, 1 mM MgCl2, 0.5 µM [U-^14C] adenosine (500 mCi/mmol) and 0.1 µg of purified pig heart adenosine kinase. Different concentrations of the test compounds were incubated in the assay mixture for 20 min at 37°C. From each reaction mixture, 20 µl portions were removed and spotted on 2 cm^2 pieces of Whatman DE81 filter paper. The papers were then washed to remove [^14C] adenosine in 1mM ammonium formate followed by deionized water and finally 95% ethanol. The papers were dried, and [^14C]AMP measured by scintillation counting. Activities were determined from the amount of [^14C]AMP formed. This is a suitable in vitro test method for determining adenosine kinase enzyme inhibition activity.

[9] = system: rat cardiomyocytes; settings: inhibition of adenosine deaminase alone; cited from earlier work
[10] = in human blood; cited from earlier work
[11] = biological target: adenosine kinase (Bos taurus, UniProt A0AAA9TET8); assay: Adenosine kinase inhibition in intact cells; assay type: cell-based
Method: Inhibition of adenosine kinase in intact cells was determined from the amount of incorporation of radioisotope from adenosine into the adenylates (AMP, ADP and ATP) in the presence of adenosine deaminase inhibition. Capillary endothelial cells from bovine heart were incubated for 60 min. With 20 µM 2'-deoxycoformycin, a potent adenosine deaminase inhibitor. Different concentrations of the test compounds were then added to the cells and incubated for 15 min. after which 5 µM [^3H]adenosine was added and the cells incubated for a further 15 min. The media was then discarded and the cells were treated with 50 µl 0.4 M perchloric acid, centrifuged and the supernatants neutralized with 100 µl alanine: freon (1:4). Radiosotope-labelled adenylates were separated by TLC on PEI cellulose plates developed in methanol:water (1:1) and incorporation of ^3H determined by scintillation counting.

[12] = system: guinea pig ileum; assay: Inhibition of contraction in isolated ileum; settings: electrically stimulated; reversal by 8SPT and ADA; Figure 3
Method: The ability of adenosine kinase inhibition to affect stimulated contraction of muscle strips from the isolated ileum has been investigated.
Parallel platinum electrodes were used to deliver electrical current at 1 minute intervals at a voltage adequate to induce contraction of 90% of maximal. The adenosine kinase inhibitors, GP-1-515 or GP-1-547 were added to the tissue baths at different concentrations, with or without either the adenosine receptor antagonist, 8-sulphophenyltheophylline (8SPT) or adenosine deaminase (ADA), and the effects on contraction monitored.

[13] = system: Isolated guinea pig hearts; assay: Functional recovery in isolated hearts after low flow ischemia (Langendorff); settings: Conc. 0.3 ( M) in perfusion buffer; for Functional Recovery (% preischemic LVDP): 45 minutes low flow ischemia, 30 minutes reperfusion
Method: The ability of a number of adenosine kinase inhibitors to improve the recovery of post-ischemic function was examined in an isolated guinea pig heart model.
Isolated guinea pig hearts were cannulated via the ascending aorta and attached to a perfusion apparatus according to the method of Langendorff. The hearts were perfused at a constant pressure of 60 cm of H2O with a modified Krebs-Hanseleit buffer (pH 7.4) at 37°C. Left ventricular developed pressures (LVDP) were monitored continuously using a latex balloon attached to a pressure transducer. Coronary flows were measured gravimetrically by timed collection of pulmonary effluent. Following equilibration of the hearts for a period of 30 minutes, the hearts were subjected to 45 minutes of low flow ischemia, by reducing the perfusion pressure to 10 cm of H2O, and then reperfused for 30 minutes by restoring the pressure to its. original level (60 cm of H2O). The adenosine kinase inhibitors GP-1-238, GP-1-515 and GP1-547 were added to the perfusion buffer at the final concentrations specified. […] TABLE A

[14] = system: platelet-induced coronary thrombosis; assay: Canine model of platelet-induced coronary thrombosis (Folts, cyclic flow reductions); assay type: in vivo
Method: GP-1-515 was tested in a canine model of platelet-induced coronary thrombosis (Folts, J., Circulation, 1991, 83[Suppl. IV]:IV-3-IV-14). In this model, platelets cyclically aggregate and embolize causing cyclic flow reductions (CFRs) that are quantitated by the frequency and the change in coronary blood flow from low point to peak with each cycle. […] TABLE C

[15] = biological target: T1, calf intestinal mucosa adenosine deaminase (Bos taurus, UniProt P56658); assay: Inhibition of adenosine deaminase activity; assay type: biochemical; settings: 10 min at 37°C
T1 construct: 0.002 units of calf intestinal mucosa adenosine deaminase; from tissue; host or cells: calf intestinal mucosa
T1 sequence (P56658 1-363): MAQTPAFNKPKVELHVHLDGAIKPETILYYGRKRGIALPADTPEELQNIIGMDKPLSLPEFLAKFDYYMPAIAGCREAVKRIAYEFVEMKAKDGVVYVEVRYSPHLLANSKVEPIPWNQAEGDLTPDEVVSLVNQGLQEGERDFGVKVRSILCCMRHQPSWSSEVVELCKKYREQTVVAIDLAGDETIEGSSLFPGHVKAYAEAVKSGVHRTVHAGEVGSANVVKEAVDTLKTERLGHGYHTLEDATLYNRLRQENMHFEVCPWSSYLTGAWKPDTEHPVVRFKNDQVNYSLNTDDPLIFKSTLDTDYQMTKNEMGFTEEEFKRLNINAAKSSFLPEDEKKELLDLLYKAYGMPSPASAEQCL
Method: Different concentrations of the test compounds were incubated in the assay mixture for 10 min at 37°C. The reaction was monitored continuously for oxidation of NADH from the change in absorbance at 340nm.

[16] = biological target: T2, A1 receptor (Homo sapiens, UniProt P30542); assay: A1 receptor binding affinity ([3H]CHA, neuronal membrane); settings: 1 nM [3H]CHA, 60 min at 37°C
T2 construct: 1 nM [^3H]CHA and 0.5 mg of neuronal membrane; from tissue
T2 sequence (P30542 1-326): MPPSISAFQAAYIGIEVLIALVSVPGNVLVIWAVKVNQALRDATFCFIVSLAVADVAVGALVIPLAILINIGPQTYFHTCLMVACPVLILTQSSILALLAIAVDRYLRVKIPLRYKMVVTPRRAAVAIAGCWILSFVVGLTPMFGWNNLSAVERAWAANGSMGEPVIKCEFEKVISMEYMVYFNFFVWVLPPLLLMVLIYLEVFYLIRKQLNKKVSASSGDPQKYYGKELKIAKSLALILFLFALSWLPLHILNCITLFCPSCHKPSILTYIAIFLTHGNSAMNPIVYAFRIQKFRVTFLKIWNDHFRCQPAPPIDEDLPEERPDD
Excerpt: The reaction was stopped and unbound [^3H]CHA removed by rapid filtration through Whatman GF/B filters. The filter papers were then solubilized and bound [^3H]CHA determined by scintillation counting.

[17] = system: Anesthetized male dogs; assay: Preclinical model of stable angina (pacing-induced ischemia); assay type: in vivo
Method: GP-1-515, was evaluated for its ability to prevent cumulative cardiac dysfunction associated with repeated episodes of pacing-induced ischemia.
Anesthetized male dogs were instrumented to measure regional myocardial wall thickening during right atrial pacing (Young & Mullane, Am. J. Physio., 1991, 261:1570-1577). Animals were subjected to six repeated episodes of pacing. A continuous IV infusion of […] of GP-1-515 or saline (control) -was administered post pace #1. […] TABLE B

[18] = read-out: IC50 in the adenosine kinase inhibition assay

Chain of purified pig heart adenosine kinase (A0A5G2R0F5 1-362): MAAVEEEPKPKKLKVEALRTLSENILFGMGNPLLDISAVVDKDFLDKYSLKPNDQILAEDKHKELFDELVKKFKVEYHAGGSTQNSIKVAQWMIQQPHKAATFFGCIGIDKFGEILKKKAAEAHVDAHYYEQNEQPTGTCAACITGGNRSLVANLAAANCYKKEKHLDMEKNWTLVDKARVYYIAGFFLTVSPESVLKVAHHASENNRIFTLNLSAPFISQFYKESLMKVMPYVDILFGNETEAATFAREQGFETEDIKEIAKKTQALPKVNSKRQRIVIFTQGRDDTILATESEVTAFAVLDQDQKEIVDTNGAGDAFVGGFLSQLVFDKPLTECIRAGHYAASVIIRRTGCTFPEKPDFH
Chain of adenosine kinase (A0AAA9TET8 1-345): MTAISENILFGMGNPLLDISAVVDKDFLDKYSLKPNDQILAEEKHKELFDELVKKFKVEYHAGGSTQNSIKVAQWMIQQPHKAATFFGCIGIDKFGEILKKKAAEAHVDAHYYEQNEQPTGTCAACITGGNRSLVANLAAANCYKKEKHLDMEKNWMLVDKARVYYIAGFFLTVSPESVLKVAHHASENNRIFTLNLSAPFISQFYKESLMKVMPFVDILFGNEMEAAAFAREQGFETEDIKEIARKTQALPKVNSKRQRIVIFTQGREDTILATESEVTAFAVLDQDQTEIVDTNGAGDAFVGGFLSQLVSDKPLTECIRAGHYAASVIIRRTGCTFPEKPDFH

SMILES: C[C@H]1O[C@@H](n2cc(I)c3c(N)ncnc32)[C@H](O)[C@@H]1O [GP-1-456, 5'-deoxy-5-iodotubercidin]
adenosine uptake [1]: inhibited
blood pressure and heart rate [2]: decrease blood pressure and heart rate
adenosine uptake [3]: inhibited
neutrophil adhesion to endothelial cells [4]: inhibit neutrophil adhesion to endothelial cells
No. of Animals (protected/tested) ([5]; 0.05 mg/kg orally): 1/8
No. of Animals (protected/tested) ([5]; 0.10 mg/kg orally): 2/8
ED50 ([5]; Rattus norvegicus, po, 1 h, orally, rats, from the data of Table E, read-out: ED50 for protection of electroshock-induced seizures): 0.18 mg/kg
body temperature [6]: hypothermia
flaccidity and spontaneous locomotor activity [6]: pronounced general flaccidity and much-reduced spontaneous locomotor activity
PTZ induced seizures [7]: dose-dependent inhibition

SMILES: NC[C@H]1O[C@@H](n2nc(-c3ccccc3)c3c(Nc4ccccc4)ncnc32)[C@H](O)[C@@H]1O [GP-1-704]
IC50 [8, 18]: < 0.01 µM

SMILES: OC[C@H]1O[C@@H](n2nc(-c3ccccc3)c3c(Nc4ccccc4)ncnc32)[C@H](O)[C@@H]1O [GP-1-695]
IC50 [8, 18]: < 0.01 µM

SMILES: OC[C@H]1O[C@@H](n2cnc3c2N=CNC[C@H]3O)C[C@@H]1O [2'-deoxycoformycin]
adenosine release from the cells [9]: no effect on adenosine release

IC50 [8, 18]: < 0.01 µM
SMILES: [N-]=[N+]=NC[C@H]1O[C@@H](n2nc(-c3ccccc3)c3c(Nc4ccccc4)ncnc32)[C@H](O)[C@@H]1O [GP-1-667]

SMILES: Nc1ncnc2c1ncn2[C@@H]1O[C@H](CO)[C@@H](O)[C@H]1O [adenosine]
half life [10]: < 1 s

SMILES: CNc1ncnc2c1ncn2[C@@H]1O[C@H](CN)[C@@H](O)[C@H]1O [GP-1-272]
neutrophil adhesion to endothelial cells [4]: inhibit neutrophil adhesion to endothelial cells

SMILES: C[C@H]1O[C@@H](n2nc(-c3ccccc3)c3c(Nc4ccccc4)ncnc32)[C@H](O)[C@@H]1O [GP-1-665]
IC50 [8, 18]: < 0.01 µM
IC50 ([11]; read-out: IC50 in the adenosine kinase inhibition assay in intact cells; Capillary endothelial cells from bovine heart, 20 µM 2'-deoxycoformycin): 0.0045 µM

IC50 [8, 18]: < 0.01 µM
SMILES: NC[C@H]1O[C@@H](n2cc(Br)c3c(Cl)ncnc32)[C@H](O)[C@@H]1O [GP-1-608, 7-(5-Amino-5-deoxy-1-β-D-ribofuranosyl)-5-bromo-4-chloropyrrolo [2,3-d]pyrimidine]

SMILES: NC[C@H]1O[C@@H](n2nc(I)c3c(N)ncnc32)[C@H](O)[C@@H]1O [GP-1-547]
contraction of longitudinal muscle of the ileum [12]: Inhibition of contraction
Preischemic Flow [13]: 6.2 ± 0.3 mL/min/g
Functional Recovery (% preischemic LVDP) [13]: 79.0 ± 3.1 % preischemic LVDP

SMILES: NC[C@H]1O[C@@H](n2nc(Br)c3c(N)ncnc32)[C@H](O)[C@@H]1O [GP-1-515]
IC50 [8]: < 0.01 µM
(N abolished)/(N total) ([14]; 0.03 (dose, unit not given)): 1/8
CFR (D flow) ([14]; 0.03 (dose, unit not given)): 10.1 ± 2.6 (n=7)
CFR (freq.) ([14]; 0.03 (dose, unit not given)): 3.0 ± 0.6 (n=7)
(N abolished)/(N total) ([14]; 0.1 (dose, unit not given)): 3/8
CFR (D flow) ([14]; 0.1 (dose, unit not given)): 11.0 ± 2.1 (n=5)
CFR (freq.) ([14]; 0.1 (dose, unit not given)): 3.4 ± 0.8 (n=5)
(N abolished)/(N total) ([14]; 0.3 (dose, unit not given)): 3/8
CFR (D flow) ([14]; 0.3 (dose, unit not given)): 14.1 ± 1.9 (n=5)
CFR (freq.) ([14]; 0.3 (dose, unit not given)): 4.2 ± 0.6 (n=5)
CFRs abolished (animals) ([14]; summary): 3 of 8
IC50 [15]: > 1000 µM
contraction of longitudinal muscle of the ileum [12]: Inhibition of contraction
IC50 ([11]; Capillary endothelial cells from bovine heart, 20 µM 2'-deoxycoformycin; read-out: IC50 in the adenosine kinase inhibition assay in intact cells): 0.009 µM
IC50 [16]: > 100 µM
% of Non-Ischemic Wall Thickening ([17]; Pace # 1 (infusion started post pace #1)): 39.8 ± 3.2%
% of Non-Ischemic Wall Thickening ([17]; Pace # 2, continuous IV infusion of 1 g/kg/min): 43.6 ± 12.0%
% of Non-Ischemic Wall Thickening ([17]; Pace # 3, continuous IV infusion of 1 g/kg/min): 34.0 ± 19.0%
% of Non-Ischemic Wall Thickening ([17]; Pace # 4, continuous IV infusion of 1 g/kg/min): 50.5 ± 21.3%
% of Non-Ischemic Wall Thickening ([17]; Pace # 5, continuous IV infusion of 1 g/kg/min): 75.6 ± 19.4%
% of Non-Ischemic Wall Thickening ([17]; Pace # 6, continuous IV infusion of 1 g/kg/min): 62.6 ± 17.1%
Preischemic Flow [13]: 6.5 ± 0.3 mL/min/g
Functional Recovery (% preischemic LVDP) [13]: 79.0 ± 3.4 % preischemic LVDP
